Patent publication US20110250133A1, “GASTRIN […] PEPTIDE COMPOUNDS” (priority 2003, published 2011)
Read-outs that look alike come from different tables or passages of the source.

Tests used:
[1] = target: gastrin releasing peptide receptor (GRP-R) (human) (UniProt P30550); experiment: saturation binding of carrier-added radioligand on PC-3 cells, 4 C
[2] = tested on: PC3 tumor-bearing nude mouse model; experiment: Radiotherapy efficacy studies in the PC3 tumor-bearing nude mouse model; assay type: in vivo; settings: 177Lu labeled; for survival, Short Term Efficacy Study: 30 mCi/kg, up to 30 days, vs untreated and DO3A-monoamide-Aoc-QWAVGHLM-NH2 control; for survival, Long Term Efficacy Study: same dose, up to 120 days, vs controls
Method: Radiotherapy studies were performed using the PC3 tumor-bearing nude mouse model. […] (n=12 for each treatment group for up to 30 days, and n=36 for the pooled untreated control group for up to 31 days). […] The subjects were housed in a barrier environment for the duration of the study. Body weight and tumor size (by caliper measurement) were collected on each subject 3 times per week for the duration of the study. Criteria for early termination included: death; loss of total body weight (TBW) equal to or greater than 20%; tumor size equal to or greater than 2 cm^3.

NMB-R = target: T1, NMB-R (Rattus norvegicus, UniProt P24053); experiment: Competition with 125I-NMB for NMB-R in C6 cells (linker specificity); assay type: binding, rodent; settings: for receptor subtype preference (GRP-R vs NMB-R): from IC50 with 125I-NMB (C6) and 125I-BBN (PC3), cut off 10x the IC50 of [Tyr4]-BBN;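 on all read-outs here: test cells: rodent glioblastoma C6 line carrying NMB-R, human prostate cancer PC3 line carrying GRP-R, affinity fitted by one-site competition nonlinear regression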
T1 construct: C6, an NMB-R expressing rodent glioblastoma cell line; host or cells: C6 glioblastoma cells, intact adherent cells
T1 sequence (P24053 1-390): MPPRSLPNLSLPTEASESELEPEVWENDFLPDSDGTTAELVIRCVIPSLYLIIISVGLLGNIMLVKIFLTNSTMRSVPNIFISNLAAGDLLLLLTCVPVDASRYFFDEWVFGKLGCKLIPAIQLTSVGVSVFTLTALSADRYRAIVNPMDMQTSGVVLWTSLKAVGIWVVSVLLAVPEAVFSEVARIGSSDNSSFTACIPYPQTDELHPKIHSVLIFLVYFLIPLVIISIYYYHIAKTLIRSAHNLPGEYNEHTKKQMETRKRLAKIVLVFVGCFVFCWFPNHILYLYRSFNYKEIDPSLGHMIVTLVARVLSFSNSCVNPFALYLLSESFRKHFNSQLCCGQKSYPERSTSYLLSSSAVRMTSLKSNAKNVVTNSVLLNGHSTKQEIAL
Method: Two cell lines, C6, an NMB-R expressing rodent glioblastoma cell line and PC3, a GRP-R expressing human prostate cancer cell line, were used in this assay. The affinity of various unlabeled compounds for each receptor subtype (NMB-R and GRP-R) was determined indirectly by measuring its ability to compete with the binding of ^125I-NMB or ^125I-BBN to its corresponding receptors in C6 and PC3 cells.
Cells for the assays were plated at a concentration of 9.6×10^4/well in 48 well poly-lysine coated plates (Beckton Dickinson Biocoat). PC3 were obtained from ATCC(CRL-1435) and cultured in RPMI 1640 (ATCC) supplemented with 2 mM L-glutamine, 1.5 g/L Sodium bicarbonate, 10 mM HEPES and 10% FBS. […] PC3 cells for the assays were plated at a concentration of 2.0×10^4 cells/well in 96-well white/clear bottom plates (Falcon Optilux-I). Plates were used for the assays on day 2 of the post-plating.
RPMI 1640 (ATCC) containing 25 mM HEPES, 0.2% BSA fraction V, 1.0 mM AEBSF (CAS # 3087-99-7) and 0.1% Bacitracin (CAS # 1405-87-4), pH 7.4. Custom made ^125I-[Tyr^0]NMB, >2.0 Ci/μmole (Amersham Life Science) [^125I-NMB] and commercially available ^125I-[Tyr^4]BBN, >2.0 Ci/μmole (Perkin Elmer Life Science) [^125I-BBN] were used as radioligands.
Using a 48-well plate assay system (for C6 study) competition experiments were performed using ^125I-NMB. […] Selection of compounds for the assay was based on linker subtype.
The binding parameters obtained from the studies were analyzed using a one-site competition non-linear regression analysis with GraphPad Prism. The relative affinity of various compounds for NMB-R in C6 cells were compared with those obtained using commercially available [Tyr^4]-BBN and [Tyr^0]-NMB. To distinguish the GRP-R preferring compounds from NMB-R plus GRP-R preferring compounds, IC50 values obtained for each compound were compared with those obtained from [Tyr^4-BBN with ^125I-NMB on C6 cells.

[3] = tested on: PC3 tumor-bearing nude mice; assay type: in vivo, mouse
Method: In all studies, mice were administered 100 μL of ^177Lu-labeled test compound at 200 μCi/kg, i.v., with a residence time of 1 and 24 h per group (n=3-4). Tissues were analyzed in an LKB 1282 CompuGamma counter with appropriate standards.

PC3 cells = experiment: Internalization and efflux assay in PC3 cells; assay type: cell-based, human; settings: 125I-BBN or Lu-177 complexes; for Internalisation (40 minutes): 40 min at 37° C.; for Efflux (2 h): 2 h at 37° C. after 40 min loading
Method: These studies were conducted in a 96-well plate. […] Incubations were stopped by the addition of 200 μl of ice-cold binding buffer. Plates were washed twice with binding buffer. To remove surface-bound radioligand, the cells were incubated with 0.2M acetic acid (in saline), pH 2.8 for 2 min. Plates were centrifuged and the acid wash media were collected to determine the amount of radioactivity which was not internalized. The cells were collected to determine the amount of internalized ^125I-BBN, and all samples were analyzed in the gamma counter. Data for the internalization assay was normalized by comparing counts obtained at the various time points with the counts obtained at the final time point (T=40 min).
For the efflux studies, after loading the PC3 cells with ^125I-BBN or radiolabeled compounds of the invention for 40 min at 37° C., the unbound material was filtered, and the % of internalization was determined as above. The cells were then resuspended in binding buffer at 37° C. for up to 3 h.

GRP-R = target: T2, GRP-R (Homo sapiens, UniProt P30550); experiment: Competition studies of modified BBN analogs with 125I-BBN for GRP-R in PC3 cells (Example LXI); assay type: binding
T2 construct: host or cells: PC3 (PC-3) human prostate cancer cells, intact adherent cells
Method: PC3 cell lines were obtained from ATCC(CRL-1435) and cultured in RPMI 1640 (ATCC) supplemented with 2 mM L-glutamine, 1.5 g/L Sodium bicarbonate, 10 mM HEPES and 10% FBS. […] PC3 cells for the assays were plated at a concentration of 2.0×10^4 cells/well in a 96-well white/clear bottom plates (Falcon Optilux-I). Plates were used for the assays on day 2 of the post-plating.
^125I-BBN (Cat # NEX258) was obtained from PerkinElmer Life Sciences.
All compounds tested were dissolved in binding buffer and appropriate dilutions were also done in binding buffer. PC3 cells for assay were seeded at a concentration of 2.0×10^4/well either in 96-well black/clear collagen I cellware plates (Beckton Dickinson Biocoat). Plates were used for binding studies on day 2 post-plating. The plates were checked for confluency (>90% confluent) prior to assay. […] The studies were conducted with an assay volume of 75 μL per well. Triplicate wells were used for each data point. After the addition of the appropriate solutions, plates were incubated for 1 hour at 4° C. Incubation was ended by the addition of 200 μL of ice-cold incubation buffer. Plates were washed 5 times and blotted dry. Radioactivity was detected using either a LKB CompuGamma counter or a microplate scintillation counter.

[4] = target: human neuromedin-B preferring receptor (NMB-R) (human) (UniProt P28336); experiment: competition with 125I-universal ligand, receptor autoradiography on human cancer tissue
[5] = target: gastrin releasing peptide receptor (GRP-R) (human) (UniProt P30550); experiment: as above
[6] = tested on: PC-3 prostate cancer cells; experiment: Effect of drug treatment on GRP receptor binding (177Lu-AMBA) in PC-3 cells; assay type: cell-based, human; settings: PC-3; relative to untreated control; drug 0.1-1.0 μM
Method: (§1) RPMI 1640 supplemented with 20 mM HEPES, 0.1% BSA (w/v), 0.5 mM PMSF (AEBSF), bacitracin (50 mg/500 ml), pH 7.4.
(§2) Incubations were stopped by the addition of 200 μL of ice-cold binding buffer. Plates were washed three more times with binding buffer, 140 μL of scintillation fluid was added to each well, the plates were sealed and analyzed on a Microβ plate reader (Microbeta Trilux, Perkin-Elmer).
PC-3 (human prostate adenocarcinoma, bone metastasis, AR-, ER) were obtained from the American Type Culture Collection. The growth medium for PC-3 cells is RPMI 1640 (10-041-CM, Mediatech, Inc), supplemented with 10% heat inactivated FBS (Hyclone, SH30070.03) and PSF-1× (as in Example LXVI). The binding buffer, lapatinib solutions, treatment method and cell binding assay is the same as in Example LXVI.

[7] = tested on: T47D human breast cancer cells; experiment: Effect of drug treatment on GRP receptor binding (177Lu-AMBA) in T47D cells; assay type: cell-based; settings: T-47D; relative to untreated control; drug 0.1-1.0 μM (gefitinib 0.1-10 μM)
Excerpt: T-47D breast cancer cells (human metastatic mammary gland ductal adenocarcinoma isolated from pleural effusion, ER+, PR+) were obtained from the American Type Culture Collection.

[8] = tested on: PC-3 prostate cancer cells; experiment: Effect of dasatinib on GRP receptor binding, proliferation and glucose uptake in PC-3 cells (single plate assay); assay type: cell-based, human; settings: for % Change in 2-NBDG uptake / % change in 177Lu-AMBA uptake / % Change in Proliferation / 177Lu-AMBA uptake (Bmax fmoles/million cells): PC3 cells; for % Change in Proliferation: N = 4; for 177Lu-AMBA uptake (Bmax fmoles/million cells): control 266 (±23)
Method: The cells were plated on Day 0 (7.5 k/well 96-well PE Scintiplate). […] To determine the cell numbers and the proliferation, 100 uL of 10% CCK—F solution in DPBS (Molecular technologies) was added to the same plate, incubated for 30 min at 37° C. and the relative fluorescence (RFU) measured at 535 nm. Base on the cell numbers and the ^177Lu-binding, the Bmax (fmoles bound/million cells) was calculated, and the results compared with the control.
For the glucose uptake study, a fluorescently labeled 2-deoxyglucose derivative (2-NBDG) was used. After the dasatinib treatment as described above, the cells were incubated with 2-NBDG (200 uM) in binding buffer for 2 h at 37° C. and measured RFU at 530 nm. The cell numbers were determined using CCK—F as described above. Based on the cell numbers Bmax for glucose uptake was determined and compared with the control.

[9] = tested on: BT-474 human breast cancer cells; experiment: Effect of drug treatment on GRP receptor binding (177Lu-AMBA) in BT-474 cells; assay type: cell-based; settings: BT-474; relative to untreated control; drug 0.1-1.0 μM (4-OH Tamoxifen 0.001-0.1 μM)
Method: BT-474 breast cancer cells (human primary invasive ductal carcinoma; ER+, PR+, amplified HER2/neu+) were obtained from the American Type Culture Collection. The growth medium for BT-474 cells is Hybri-care Medium (Cat No: 46X, ATCC) supplemented with 10% heat inactivated FBS (Hyclone, SH30070.03), 0.2% NaHCO3, and antibiotic/antimycotic “PSF-1×” (GibcoBRL, 15240-062) for a final concentration of penicillin-streptomycin (1×, 100 units/mL), and fungizone (0.25 μg/mL). […] Cells for binding experiments were plated on Day 0 at 5.6×10^4 cells/cm^2 in 96-well white/clear bottom microtiter plates (Falcon Optilux-I), or 96 well black/clear collagen I cellware plates (Beckton Dickinson Biocoat).
as §1, §2
Treatment: BT-474 cells were plated on Day 0 and treated on Days 1 and 2 (DT1, DT2).

[10] = 177Lu-labeled, 1 and 24 h, compared with control DO3A-monoamide-Aoc-QWAVGHLM-NH2
[11] = 177Lu-labeled, compared with control DO3A-monoamide-Aoc-QWAVGHLM-NH2

Chain of gastrin releasing peptide receptor (GRP-R) (human) (P30550 whole entry): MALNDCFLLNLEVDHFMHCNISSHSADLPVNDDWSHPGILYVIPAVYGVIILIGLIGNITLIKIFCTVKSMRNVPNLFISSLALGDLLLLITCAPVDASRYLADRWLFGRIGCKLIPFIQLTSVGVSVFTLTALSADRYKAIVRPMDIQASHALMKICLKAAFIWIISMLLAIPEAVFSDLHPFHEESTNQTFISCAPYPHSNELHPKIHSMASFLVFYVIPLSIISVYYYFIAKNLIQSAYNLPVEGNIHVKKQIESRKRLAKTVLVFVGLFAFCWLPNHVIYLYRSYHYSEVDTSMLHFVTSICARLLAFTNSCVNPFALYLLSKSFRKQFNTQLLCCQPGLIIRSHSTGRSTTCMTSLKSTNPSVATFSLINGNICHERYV
T2 sequence (P30550 whole entry): as above
Chain of human neuromedin-B preferring receptor (NMB-R) (human) (P28336 whole entry): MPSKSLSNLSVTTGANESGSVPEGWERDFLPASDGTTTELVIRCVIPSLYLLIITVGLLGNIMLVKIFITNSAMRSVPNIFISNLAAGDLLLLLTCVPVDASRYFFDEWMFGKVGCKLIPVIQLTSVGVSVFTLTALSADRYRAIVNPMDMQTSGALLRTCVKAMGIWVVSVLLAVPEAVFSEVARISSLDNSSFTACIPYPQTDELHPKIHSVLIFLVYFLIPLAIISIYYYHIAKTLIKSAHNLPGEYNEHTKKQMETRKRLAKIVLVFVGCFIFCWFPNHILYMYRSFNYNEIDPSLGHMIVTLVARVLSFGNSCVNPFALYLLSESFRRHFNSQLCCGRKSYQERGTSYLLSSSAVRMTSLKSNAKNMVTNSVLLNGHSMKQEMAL

## 67Ga-AMBA (peptide)
[1]
  Binding capacity (Bmax) (fmoles/1 × 10^6 cells): 402
  Kd: 0.46 nM
  Receptors/cell (receptors/cell): 242000

## CSCC[C@H](NC(=O)[C@H](CC(C)C)NC(=O)[C@H](Cc1c[nH]cn1)NC(=O)CNC(=O)[C@@H](NC(=O)[C@H](C)NC(=O)[C@H](Cc1c[nH]c2ccccc12)NC(=O)[C@H](CCC(N)=O)NC(=O)CC[C@@H](C)[C@H]1CC[C@H]2[C@@H]3CC[C@@H]4C[C@@H](NC(=O)CNC(=O)CN5CCN(CC(=O)O)CCN(CC(=O)O)CCN(CC(=O)O)CC5)CC[C@]4(C)[C@H]3C[C@H](O)[C@]12C)C(C)C)C(N)=O [Compound L63, N-[(3β,5β,12α)-3-[[[[[4,7,10-Tris(carboxymethyl)-1,4,7,10-tetraazacyclododec-1-yl]acetyl]amino]acetyl]amino]-12-hydroxy-24-oxocholan-24-yl]-L-glutaminyl-L-tryptophyl-L-alanyl-L-valyl-glycyl-L-histidyl-L-leucyl-L-methioninamide]
[2]
  survival, Short Term Efficacy Study: increased survival
NMB-R
  receptor subtype preference (GRP-R vs NMB-R): dual affinity for both GRP-R and NMB-R
[3]; [10]
  uptake in the tumor: high tumor uptake
[3]; [11]
  distribution of radioactivity in the blood, liver and kidneys: increased blood and liver values at early times
  uptake in the mouse pancreas: much higher
PC3 cells
  Internalisation (40 minutes): 64%
  Efflux (2 h): 0%

## CSCC[C@H](NC(=O)[C@H](CC(C)C)NC(=O)[C@H](Cc1c[nH]cn1)NC(=O)CNC(=O)[C@@H](NC(=O)[C@H](C)NC(=O)[C@H](Cc1c[nH]c2ccccc12)NC(=O)[C@H](CCC(N)=O)NC(=O)CC[C@@H](C)[C@H]1CC[C@H]2[C@@H]3[C@H](O)C[C@@H]4C[C@@H](NC(=O)CNC(=O)CN5CCN(CC(=O)O)CCN(CC(=O)O)CCN(CC(=O)O)CC5)CC[C@]4(C)[C@H]3C[C@H](O)[C@]12C)C(C)C)C(N)=O [Compound L64, N-[(3β,5β,7α,12α)-3-[[[[[4,7,10-Tris(carboxymethyl)-1,4,7,10-tetraazacyclododec-1-yl]acetyl]amino]acetyl]amino]-7,12-dihydroxy-24-oxocholan-24-yl]-L-glutaminyl-L-tryptophyl-L-alanyl-L-valyl-glycyl-L-histidyl-L-leucyl-L-methioninamide]
[2]
  survival, Short Term Efficacy Study: increased survival
  survival, Long Term Efficacy Study: significantly increased survival
NMB-R
  receptor subtype preference (GRP-R vs NMB-R): dual affinity for both GRP-R and NMB-R
[3]; [10]
  uptake in the tumor: much higher
[3]; [11]
  uptake in the mouse pancreas: much higher
PC3 cells
  Internalisation (40 minutes): 69%
  Efflux (2 h): 20%

## DO3A-Gly-Abz4-Gln-Trp-Ala-Val-Gly-His-Phe-Leu-NH2 [Compound L300]
GRP-R
  competition at the GRP-R: high activity at the GRP-R

## DO3A-monoamide-Aoc-QWAVGHLM-NH2
PC3 cells
  Internalisation (40 minutes): 89%
  Efflux (2 h): 28%

## GNLWATGHFM-NH2
GRP-R
  competition at the GRP-R: unable to compete
NMB-R
  competition at NMB-R: effective NMB competitors
NMB-R; wrapped cell: 'No selective preference' or 'preference for NMB-R'
  receptor preference in words (GRP-R / GRP-R and NMB-R): preference for NMB-R

## N-[4-[[[[[4,7,10-Tris(carboxymethyl)-1,4,7,10-tetraazacyclododec-1-yl]acetyl]amino]acetyl]amino]benzoyl]-L-glutaminyl-L-tryptophyl-L-alanyl-L-valyl-glycyl-L-histidyl-L-leucyl-L-methioninamide [Compound L70]
[2]
  survival, Short Term Efficacy Study: increased survival
  survival, Long Term Efficacy Study: significantly increased survival
NMB-R
  receptor subtype preference (GRP-R vs NMB-R): dual affinity
[3]; mouse, in vivo
  uptake in the tumor: much higher
PC3 cells
  Internalisation (40 minutes): 70%
  Efflux (2 h): 12%

## N-[(3β,5β,12α)-3-[[[4,7,10-Tris(carboxymethyl)-1,4,7,10-tetraazacyclododec-1-yl]acetyl]amino]-glycyl-4-aminobenzoyl-L-glutaminyl-L-tryptophyl-L-alanyl-L-valyl-glycyl-L-histidyl-L-phenylalanyl-L-methioninamide [Compound L228]
GRP-R
  competition at the GRP-R: maintains GRP-R activity

## N-[(3β,5β,12α)-3-[[[4,7,10-Tris(carboxymethyl)-1,4,7,10-tetraazacyclododec-1-yl]acetyl]amino]-glycyl-4-aminobenzoyl-L-glutaminyl-L-tryptophyl-L-alanyl-glycyl-L-histidyl-L-phenylalanyl-L-leucinamide [Compound L224]
GRP-R
  competition at the GRP-R: complete loss of binding

## N-[(3β,5β,12α)-3-[[[4,7,10-Tris(carboxymethyl)-1,4,7,10-tetraazacyclododec-1-yl]acetyl]amino]-glycyl-4-aminobenzoyl-L-leucyl-L-tryptophyl-L-alanyl-L-valinyl-glycyl-L-serinyl-L-phenylalanyl-L-methioninamide [Compound L225]
GRP-R
  competition at the GRP-R: reduces competition at the GRP-R

## [DTyr6, βAla11, Phe13, Nle14]-BBN(6-14) (peptide)
[4]
  IC50: 0.8 nM
[5]
  IC50: 0.7 nM

## dasatinib
[6]
  increase in 177Lu-AMBA binding (GRP receptor specific signal per cell): up to 250%
[7]
  increase in 177Lu-AMBA binding (GRP receptor specific signal per cell): up to 500%
[8]; Dasatinib 1 nM
  % Change in 2-NBDG uptake: −4.3 (±4.6) %
  % change in 177Lu-AMBA uptake: 12.3 (±5.8) %
  % Change in Proliferation: −4.3 (±1.0) %
  177Lu-AMBA uptake (Bmax fmoles/million cells): 300 (±40) fmoles/million cells
[8]; Dasatinib 10 nM
  % Change in 2-NBDG uptake: −62.9 (±7.1) %
  % change in 177Lu-AMBA uptake: 45.4 (±8.1) %
  % Change in Proliferation: −11.2 (±5.9) %
  177Lu-AMBA uptake (Bmax fmoles/million cells): 387 (±46) fmoles/million cells
[8]; Dasatinib 100 nM
  % Change in 2-NBDG uptake: −67.8 (±15.8) %
  % change in 177Lu-AMBA uptake: 76.7 (±5.0) %
  % Change in Proliferation: −33.3 (±11.4) %
  177Lu-AMBA uptake (Bmax fmoles/million cells): 470 (±51) fmoles/million cells
[8]; PC-3, 100 nM
  177Lu-AMBA uptake, average Bmax: ≤ 470 fmoles/million cells
  decrease of glucose uptake (2-NBDG): ≤ 67.8%
  inhibition of growth (cell proliferation): ≤ 33%
[9]
  decrease in 177Lu-AMBA binding (GRP receptor specific signal per cell): 10-15%

## yGNLWATGHFM-NH2
GRP-R
  competition at the GRP-R: unable to compete
NMB-R
  competition at NMB-R: effective NMB competitors
